Test results as given in ChEMBL document CHEMBL5236568, “Discovery of 3,4-dihydropyrimido[4,5-d]pyrimidin-2(1H)-one and 3,4-dihydropyrido[2,3-d]pyrimidin-2(1H)-one derivatives as novel ENPP1 inhibitors” (Bioorg Med Chem Lett, 2022).

Assays:
[1] = target: T1, Ectonucleotide pyrophosphatase/phosphodiesterase family member 1 (Homo sapiens, UniProt P22413); assay: Inhibition of ENPP1 (unknown origin)
T1 sequence (P22413 whole entry): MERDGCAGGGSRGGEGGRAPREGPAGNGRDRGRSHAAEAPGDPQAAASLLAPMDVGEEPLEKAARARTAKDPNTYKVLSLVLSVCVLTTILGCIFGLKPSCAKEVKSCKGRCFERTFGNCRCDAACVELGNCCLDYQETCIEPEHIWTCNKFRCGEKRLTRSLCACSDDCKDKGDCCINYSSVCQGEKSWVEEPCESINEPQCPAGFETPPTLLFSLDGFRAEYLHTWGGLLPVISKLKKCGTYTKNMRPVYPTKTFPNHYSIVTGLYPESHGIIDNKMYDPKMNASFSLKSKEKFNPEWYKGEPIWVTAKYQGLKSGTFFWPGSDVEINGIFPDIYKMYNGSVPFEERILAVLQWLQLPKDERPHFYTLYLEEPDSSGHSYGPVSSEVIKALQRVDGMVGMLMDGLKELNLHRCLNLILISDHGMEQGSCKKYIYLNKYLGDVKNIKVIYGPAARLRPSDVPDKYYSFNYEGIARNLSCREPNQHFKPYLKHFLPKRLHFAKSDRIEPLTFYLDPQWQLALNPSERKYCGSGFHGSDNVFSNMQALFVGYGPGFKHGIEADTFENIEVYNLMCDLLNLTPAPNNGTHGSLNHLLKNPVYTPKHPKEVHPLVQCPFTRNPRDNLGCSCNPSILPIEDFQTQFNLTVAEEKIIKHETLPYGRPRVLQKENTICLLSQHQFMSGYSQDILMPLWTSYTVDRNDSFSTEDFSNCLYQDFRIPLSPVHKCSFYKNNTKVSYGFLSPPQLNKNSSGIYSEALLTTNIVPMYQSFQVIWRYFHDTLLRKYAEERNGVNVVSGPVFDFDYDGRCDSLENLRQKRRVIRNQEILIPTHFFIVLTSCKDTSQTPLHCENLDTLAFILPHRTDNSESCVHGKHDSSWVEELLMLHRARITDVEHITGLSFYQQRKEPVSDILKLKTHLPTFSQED

[2] = target: T2, Ectonucleotide pyrophosphatase/phosphodiesterase family member 1 (Homo sapiens) (UniProt P22413); assay: Inhibition of ENPP1 (unknown origin) at 10 uM relative to control
T2 sequence (whole entry): T1 sequence (P22413 whole entry)

CYP2C19 = CYP2C19 (Homo sapiens, UniProt P33261); assay: Inhibition of CYP2C19 (unknown origin) assessed as remaining activity at 10 uM relative to control; format: ADME; settings: read-out: Activity
Sequence of CYP2C19 (P33261 whole entry): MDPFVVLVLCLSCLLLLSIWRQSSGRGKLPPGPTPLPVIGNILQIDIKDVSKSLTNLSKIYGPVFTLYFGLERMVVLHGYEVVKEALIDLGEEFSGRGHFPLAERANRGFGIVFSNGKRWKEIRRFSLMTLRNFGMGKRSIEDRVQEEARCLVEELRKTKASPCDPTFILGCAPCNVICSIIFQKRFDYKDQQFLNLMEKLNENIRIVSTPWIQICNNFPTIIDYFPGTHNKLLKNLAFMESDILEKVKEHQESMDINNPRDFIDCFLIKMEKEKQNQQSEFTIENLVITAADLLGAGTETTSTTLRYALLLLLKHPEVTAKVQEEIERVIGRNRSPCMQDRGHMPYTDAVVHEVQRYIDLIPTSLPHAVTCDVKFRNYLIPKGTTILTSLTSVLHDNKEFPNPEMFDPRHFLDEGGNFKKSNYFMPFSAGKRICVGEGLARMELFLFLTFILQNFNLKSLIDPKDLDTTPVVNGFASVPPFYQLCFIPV

CYP2C9 = CYP2C9 (Homo sapiens, UniProt P11712); assay: Inhibition of CYP2C9 (unknown origin) assessed as remaining activity at 10 uM relative to control; format: ADME; settings: read-out: Activity
Sequence of CYP2C9 (P11712 whole entry): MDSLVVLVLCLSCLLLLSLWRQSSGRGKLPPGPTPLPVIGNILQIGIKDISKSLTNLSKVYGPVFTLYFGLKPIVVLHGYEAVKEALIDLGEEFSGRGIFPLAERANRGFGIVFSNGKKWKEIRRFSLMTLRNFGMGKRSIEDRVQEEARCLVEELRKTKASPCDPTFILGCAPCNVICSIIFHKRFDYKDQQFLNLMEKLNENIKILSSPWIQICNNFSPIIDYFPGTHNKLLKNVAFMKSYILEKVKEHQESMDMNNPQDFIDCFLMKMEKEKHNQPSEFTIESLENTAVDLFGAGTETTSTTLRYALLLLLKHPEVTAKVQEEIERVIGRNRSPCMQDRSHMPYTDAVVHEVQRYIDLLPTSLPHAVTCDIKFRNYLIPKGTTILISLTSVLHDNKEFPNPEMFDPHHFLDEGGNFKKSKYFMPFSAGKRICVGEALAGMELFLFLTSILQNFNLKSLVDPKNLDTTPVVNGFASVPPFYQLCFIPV

CYP1A2 = target: T3, CYP1A2 (Homo sapiens, UniProt P05177); assay: Inhibition of CYP1A2 (unknown origin) assessed as remaining activity at 10 uM relative to control; format: ADME; settings: read-out: Activity
T3 sequence (P05177 whole entry): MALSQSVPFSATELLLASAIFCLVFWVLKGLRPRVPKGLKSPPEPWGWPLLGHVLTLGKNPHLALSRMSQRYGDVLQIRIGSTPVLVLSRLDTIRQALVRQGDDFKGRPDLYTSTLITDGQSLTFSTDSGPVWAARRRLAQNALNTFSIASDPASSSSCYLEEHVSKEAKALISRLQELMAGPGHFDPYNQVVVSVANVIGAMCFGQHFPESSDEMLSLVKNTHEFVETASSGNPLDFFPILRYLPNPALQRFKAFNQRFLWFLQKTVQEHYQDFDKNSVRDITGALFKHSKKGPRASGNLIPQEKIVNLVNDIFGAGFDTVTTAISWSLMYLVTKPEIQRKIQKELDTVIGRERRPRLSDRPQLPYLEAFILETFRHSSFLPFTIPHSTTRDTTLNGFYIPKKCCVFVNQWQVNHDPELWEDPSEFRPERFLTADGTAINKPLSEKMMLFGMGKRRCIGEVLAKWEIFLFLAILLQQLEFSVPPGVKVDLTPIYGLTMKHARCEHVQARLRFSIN

[3] = Metabolic stability in rat liver microsomes assessed as compound remaining at 1 uM after 30 mins; format: ADME, Microsome; settings: read-out: Stability
[4] = Metabolic stability in mouse liver microsomes assessed as compound remaining at 1 uM after 30 mins; format: ADME, Microsome; settings: read-out: Stability
CYP2D6 = CYP2D6 (Homo sapiens, UniProt P10635); assay: Inhibition of CYP2D6 (unknown origin) assessed as remaining activity at 10 uM relative to control; format: ADME; settings: read-out: Activity
Sequence of CYP2D6 (P10635 whole entry): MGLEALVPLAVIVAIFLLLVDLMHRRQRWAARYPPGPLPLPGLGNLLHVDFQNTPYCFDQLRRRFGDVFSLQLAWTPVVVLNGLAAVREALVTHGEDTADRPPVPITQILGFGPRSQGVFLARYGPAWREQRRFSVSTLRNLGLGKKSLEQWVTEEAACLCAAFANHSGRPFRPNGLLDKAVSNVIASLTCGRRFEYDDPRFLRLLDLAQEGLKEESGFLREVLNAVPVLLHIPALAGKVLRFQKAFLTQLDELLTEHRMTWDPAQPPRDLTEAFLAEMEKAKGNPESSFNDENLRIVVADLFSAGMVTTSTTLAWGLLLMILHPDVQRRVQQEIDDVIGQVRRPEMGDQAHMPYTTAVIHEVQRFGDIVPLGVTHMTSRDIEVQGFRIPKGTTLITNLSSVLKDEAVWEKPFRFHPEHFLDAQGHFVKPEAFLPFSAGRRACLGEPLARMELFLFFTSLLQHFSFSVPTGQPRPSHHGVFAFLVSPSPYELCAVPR

[5] = Metabolic stability in human liver microsomes assessed as compound remaining at 1 uM after 30 mins; format: ADME, Microsome; settings: read-out: Stability
CYP3A4 = CYP3A4 (Homo sapiens, UniProt P08684); assay: Inhibition of CYP3A4 (unknown origin) assessed as remaining activity at 10 uM relative to control; format: ADME; settings: read-out: Activity
Sequence of CYP3A4 (P08684 whole entry): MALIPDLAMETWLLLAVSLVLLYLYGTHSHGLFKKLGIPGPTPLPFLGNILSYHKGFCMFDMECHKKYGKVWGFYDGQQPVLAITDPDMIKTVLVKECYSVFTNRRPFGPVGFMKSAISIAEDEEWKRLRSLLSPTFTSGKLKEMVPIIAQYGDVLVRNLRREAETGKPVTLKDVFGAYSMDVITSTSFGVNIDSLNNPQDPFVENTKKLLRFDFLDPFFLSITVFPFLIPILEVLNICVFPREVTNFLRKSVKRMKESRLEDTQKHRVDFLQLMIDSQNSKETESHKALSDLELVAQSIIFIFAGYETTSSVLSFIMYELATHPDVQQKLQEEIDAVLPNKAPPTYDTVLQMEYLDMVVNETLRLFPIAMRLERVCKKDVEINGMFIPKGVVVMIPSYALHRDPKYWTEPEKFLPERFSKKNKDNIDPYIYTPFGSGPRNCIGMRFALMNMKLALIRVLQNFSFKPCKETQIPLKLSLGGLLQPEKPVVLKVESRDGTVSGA

Structure (SMILES)	IC50 [1]	inhibition [2]	other results
CN1Cc2c(ncnc2N2CCC3(CC2)CCN(S(N)(=O)=O)C3)NC1=O	164 nM	100%	–
CN1Cc2c(ncnc2Nc2ccc(NS(N)(=O)=O)cc2)NC1=O	–	67%	–
CN1Cc2c(NCc3ccc(NS(N)(=O)=O)cc3)ncnc2NC1=O	45 nM	100%	–
CN1Cc2c(ncnc2N2CCC(NS(N)(=O)=O)CC2)NC1=O	759 nM	93%	–
CN1Cc2c(ncnc2-c2ccc(CNS(N)(=O)=O)c(F)c2)NC1=O	916 nM	96%	–
CN1Cc2c(-c3ccc(CNS(N)(=O)=O)cc3)ccnc2N(C)C1=O	326 nM	96%	–
CN1Cc2c(-c3ccc(CN(C)S(N)(=O)=O)cc3)ccnc2NC1=O	1160 nM	80%	–
CN1Cc2c(-c3ccc(CNS(N)(=O)=O)c(F)c3)ccnc2NC1=O	32.3 nM	99%	activity at 10 µM (CYP2C19): > 100%; activity at 10 µM (CYP2C9): > 100%; activity at 10 µM (CYP1A2): > 100%; remaining at 0.5 h, 1 µM [3]: 86.7%; remaining at 0.5 h, 1 µM [4]: 91.1%; activity at 10 µM (CYP2D6): > 100%; remaining at 0.5 h, 1 µM [5]: 86.9%; activity at 10 µM (CYP3A4): > 100%
CN1Cc2c(ncnc2-c2ccc(CNS(N)(=O)=O)cc2)NC1=O	452 nM	97%	–
CN1Cc2c(-c3cccc(CNS(C)(=O)=O)c3)ccnc2NC1=O	–	15%	–
CN1Cc2c(-c3ccc(CNS(N)(=O)=O)cc3)ccnc2NC1=O	389 nM	100%	–
Cc1ccc(S(=O)(=O)NCc2cccc(-c3ccnc4c3CN(C)C(=O)N4)c2)cc1	–	4%	–
CN1Cc2c(-c3ccc(CNS(N)(=O)=O)cc3)ccnc2N(Cc2ccccc2)C1=O	–	0%	–
CN1Cc2c(ncnc2N2CCC(CNS(N)(=O)=O)CC2)NC1=O	48 nM	100%	–
CN1Cc2c(ncnc2N2CCC(CCNS(N)(=O)=O)CC2)NC1=O	773 nM	96%	–
CN1Cc2c(ncnc2-c2cccc(CNS(N)(=O)=O)c2)NC1=O	171 nM	99%	–
CN1Cc2c(-c3cccc(CNS(N)(=O)=O)c3)ccnc2NC1=O	525 nM	96%	–
Cc1ccc(S(=O)(=O)NCc2cccc(-c3ncnc4c3CN(C)C(=O)N4)c2)cc1	–	68%	–
CN1Cc2c(ncnc2N2CCC(C)(CNS(N)(=O)=O)CC2)NC1=O	3.7 nM	100%	activity at 10 µM (CYP2C19): > 100%; activity at 10 µM (CYP2C9): 89.4%; activity at 10 µM (CYP1A2): 94.3%; remaining at 0.5 h, 1 µM [3]: 82.3%; remaining at 0.5 h, 1 µM [4]: 96.4%; activity at 10 µM (CYP2D6): 90.9%; remaining at 0.5 h, 1 µM [5]: 85.9%; activity at 10 µM (CYP3A4): 89.7%
CN1Cc2c(N3CCC(CCNS(N)(=O)=O)CC3)ncnc2N(C)C1=O	–	62%	–
NS(=O)(=O)Nc1cccc(-c2ccnc3c2CN(C2CC2)C(=O)N3)c1	7460 nM	62%	–
CN1Cc2c(ncnc2-c2cccc(CNS(C)(=O)=O)c2)NC1=O	–	30%	–
NS(=O)(=O)NCc1ccc(-c2ccnc3c2CN(Cc2ccccc2)C(=O)N3)cc1	–	9%	–
NS(=O)(=O)NCc1ccc(-c2ccnc3c2CN(C2CC2)C(=O)N3)cc1	–	35%	–
CN1Cc2c(ncnc2N2CCC(C)(NS(N)(=O)=O)CC2)NC1=O	236 nM	98%	–
CN1Cc2c(ncnc2-c2cccc(NS(N)(=O)=O)c2)NC1=O	360 nM	100%	–
NS(=O)(=O)NCc1cccc(-c2ccnc3c2CNC(=O)N3)c1	–	20%	–
CN1Cc2c(ncnc2N2CCC(C)(CCNS(N)(=O)=O)CC2)NC1=O	669 nM	93%	–
CN1Cc2c(-c3cccc(NS(N)(=O)=O)c3)ccnc2NC1=O	766 nM	95%	–
